US9045438B2 (Silanes S.A. de C.V., priority 2002, dated 2015)

Experiments:
[1] = tested on: patients with uncontrolled type 2 diabetes mellitus; assay: Random double blind clinical study in patients with uncontrolled type 2 diabetes mellitus, 90 days; format: in vivo, human; settings: uncontrolled type 2 diabetes patients, final evaluation 90 days, dose by basal glycemia
From the text: Criteria for inclusion were as follows: • 1. […] Age 40 to 65; • 3. Capacity for deglutition; and • 4 Voluntary consent Criteria for exclusion were as follows: • 1. Pregnancy; • 2. Insulin treatment; and • 3. Personal background of systemic diseases such as: • a) Cardiac insufficiency; and • b) Hepatic or chronic hepatopathic insufficiency. • 4 Background of significant chronic complications with type 2 diabetes mellitus: • a) Renal insufficiency; • b) Ischemic cardiopathy; • c) Cerebral vascular disease; and • d) Visceral neuropathy. • 5. Background of short-term terminal diseases, such as: • a) Cancer; and • b) HIV • 6. […] Known intolerance or allergies to sulfonylureas or biguanides. Criteria for exclusion from the therapy, but not from the statistical analysis: • 1. Presence of severe hypoglycemia at the maximum dosages used in the study; • 2. Presence of severe hypoglycemia at the minimum dosages used in the study; • 3. Presence of intolerable undesirable effects with any of the medications used in the study; • 4. Failure to follow the medical treatment indicated; • 5. Failure to attend scheduled visits; • 6. Intercurrent illnesses or accidents that warrant hospitalization; • 7. […] Voluntary withdrawal from the study. The variables studied were as follows: • Dependent variables: • a) Glycemia between meals; • b) Glucosylated hemoglobin; • c) β cell function; • d) Insulin resistance; and • e) Metabolic profile. • Independent variable: • a) Hypoglycemic therapy. • Intervening variables: • a) Age; • b) Sex; • c) Body mass index; and • d) Evolution of diabetes. Clinical measurements and basal measurement of glycemia between meals, glucosylated hemoglobin, total cholesterol, cholesterol of high density lipoproteins, triglycerides, creatinine, uric acid, glutemic-oxaloacetic transaminase, glutemic-pyruvic transaminase, lactic dehydrogenase, alkaline and insulin phosphatase. Random assignment of patients to each group and pharmacological intervention in accordance with concentration of basal glycemia: [table] Clinical evaluation 30 and 60 days after beginning the study, measuring glycemia between meals and lactic dehydroginase. Final clinical evaluations 90 days after the study begins, measuring glycemia between meals, glucosylated hemoglobin, total cholesterol, high density lipoprotein cholesterol, triglyceride, creatinine, uric acid, glutemic-oxaloacetic transaminase, glutemic-pyruvic transaminase, lactic dehydrogenase, alkaline and insulin phosphatase. Undesirable effects were reported on a special record sheet, specifying each of the clinical manifestations considered probable, possible or directly related to the use of the drugs ingested.

[2] = tested on: type 2 diabetic patients; settings: cited from earlier work
[3] = clinical; settings: both, human, in vivo

Row | half-life [3] [h] | SMILES | Blood glucose between meals (change) [1] | Glucosylated hemoglobin HbA1c (change) [1] | Post-prandial blood glucose (change) [1] | potency relative to glibenclamide ([2]; R. Groomis et al., Endocrinology 13:117-121 (2000)) | incidence of severe hypoglycemia versus glibenclamide ([2]; type 2 diabetic patients, A. Holstein et al. (2000))
1 |  | CN(C)C(=N)N=C(N)N [metformin] | +0.75 | +0.06 | +1.08 |  | 
2 | 3.73 | CCC1=C(C)CN(C(=O)NCCc2ccc(S(=O)(=O)NC(=O)N[C@H]3CC[C@H](C)CC3)cc2)C1=O [glimepiride] | +0.68 | +0.25 | +0.99 | two times higher | lower incidence
